Source: the NIST ThermoML archive (doi:10.1021/acs.jced.7b01097)
Numbers after ± are expanded uncertainties.

Settings: 3000 kPa, Coriolis flow meter

CCCCCCCCCC [decane]
Settings	mass density [kg/m3]
285.3 K, Liquid	736.8 ± 15
313.1 K, Liquid	716.24 ± 14
343.4 K, Liquid	706.6 ± 14
354.5 K, Liquid	682.3 ± 15
373.3 K, Liquid	660.16 ± 13
423.7 K, Liquid	630.21 ± 13
475.8 K, Liquid	588.61 ± 12
523.2 K, Liquid	547.44 ± 12
571.8 K, Liquid	487.16 ± 14
624.2 K, Liquid	365.9 ± 16
673.2 K, Gas	143.74 ± 8.3
700.3 K, Gas	112.44 ± 7
723 K, Gas	96.77 ± 5.3
